Laboratory results: patent publication US20140141456A1, “PAPP-A2 AS A MARKER FOR MONITORING, PREDICTING AND DIAGNOSING PREECLAMPSIA” (Ansh Labs, LLC, priority 2012, published 2014)

How the values were obtained:
PAPP-A2 = PAPP-A2 (Homo sapiens, UniProt Q9BXP8)
Description: Medium from 293T cells transfected with empty vector (lane 1), cDNA encoding PAPP-A2 with an inactivating E734Q mutation (pPA2-KO) (lane 2), or cDNA encoding wild-type PAPP-A2 (pPA2) (lanes 3-6) was incubated with C-terminally c-myc tagged rIGFBP-5. Proteolytic activity was assessed by Western blotting using anti-c-myc. ‘i’ denotes intact rIGFBP-5; ‘c’ denotes the detectable C-terminal c-myc tagged cleavage product.
Briefly, recombinant IGFBP-5 as contained in 5 microL cell culture medium was incubated with culture supernatants (10 microL) from cells transfected with pPA2, pPA2-KO, or empty expression vectors (see U.S. Pat. No. 7,083,940). Phosphate buffered saline was added to a final volume of 50 microL. After incubation at 37 degrees Celsius for 12 hours, 15 microL of the reaction mixture was separated by reducing 16% SDS-PAGE, blotted onto a PVDF membrane, and the C-terminal cleavage product was detected with monoclonal anti-c-myc (clone 9E19, ATTC) using peroxidase-conjugated secondary antibodies (P260, DAKO), and enhanced chemiluminescence (ECL, Amersham).

IGFBP-5 = assay: Activity of PAPP-A2 against IGFBPs, ligand blotting using radiolabeled IGF-II; format: biochemical; conditions: medium from 293T cells transfected with pPA2
Description: (§1) Ligand blotting (Conover et al., 1993, J Clin Invest 91, 1129-37) with radiolabeled IGF-II (Bachem) was used to assay for activity against IGFBP-1 (from HepG2 conditioned medium), rIGFBP-2 (GroPep), rIGFBP-3 (gift of D. Powell), rIGFBP-4 (Austral), rIGFBP-5 (gift of D. Andress), and rIGFBP-6 (Austral). […] IGFBP-3 was partially degraded (FIG. 10). This cleavage was independent of the presence of IGF. Experiments were carried out with media from cells transfected with pPA2 or empty vector.
(§2) Medium from 293T cells transfected with empty vector (−), or cDNA encoding PAPP-A2 (pPA2) (+) was incubated with each of the six IGFBPs (BP1-BP6), and the activity was assessed by ligand blotting using radiolabeled IGF-II.

IGFBP-3 = assay: as above; format: biochemical; conditions: medium from 293T cells transfected with pPA2
Description: as §1, §2

rIGFBP-5 = assay: Proteolytic activity of PAPP-A2 against IGFBP-5, Western blotting using anti-c-myc; format: biochemical, human; conditions: absence of inhibitors; medium from 293T cells transfected with pPA2

Chain of PAPP-A2 (Q9BXP8 234-1791 limits assumed): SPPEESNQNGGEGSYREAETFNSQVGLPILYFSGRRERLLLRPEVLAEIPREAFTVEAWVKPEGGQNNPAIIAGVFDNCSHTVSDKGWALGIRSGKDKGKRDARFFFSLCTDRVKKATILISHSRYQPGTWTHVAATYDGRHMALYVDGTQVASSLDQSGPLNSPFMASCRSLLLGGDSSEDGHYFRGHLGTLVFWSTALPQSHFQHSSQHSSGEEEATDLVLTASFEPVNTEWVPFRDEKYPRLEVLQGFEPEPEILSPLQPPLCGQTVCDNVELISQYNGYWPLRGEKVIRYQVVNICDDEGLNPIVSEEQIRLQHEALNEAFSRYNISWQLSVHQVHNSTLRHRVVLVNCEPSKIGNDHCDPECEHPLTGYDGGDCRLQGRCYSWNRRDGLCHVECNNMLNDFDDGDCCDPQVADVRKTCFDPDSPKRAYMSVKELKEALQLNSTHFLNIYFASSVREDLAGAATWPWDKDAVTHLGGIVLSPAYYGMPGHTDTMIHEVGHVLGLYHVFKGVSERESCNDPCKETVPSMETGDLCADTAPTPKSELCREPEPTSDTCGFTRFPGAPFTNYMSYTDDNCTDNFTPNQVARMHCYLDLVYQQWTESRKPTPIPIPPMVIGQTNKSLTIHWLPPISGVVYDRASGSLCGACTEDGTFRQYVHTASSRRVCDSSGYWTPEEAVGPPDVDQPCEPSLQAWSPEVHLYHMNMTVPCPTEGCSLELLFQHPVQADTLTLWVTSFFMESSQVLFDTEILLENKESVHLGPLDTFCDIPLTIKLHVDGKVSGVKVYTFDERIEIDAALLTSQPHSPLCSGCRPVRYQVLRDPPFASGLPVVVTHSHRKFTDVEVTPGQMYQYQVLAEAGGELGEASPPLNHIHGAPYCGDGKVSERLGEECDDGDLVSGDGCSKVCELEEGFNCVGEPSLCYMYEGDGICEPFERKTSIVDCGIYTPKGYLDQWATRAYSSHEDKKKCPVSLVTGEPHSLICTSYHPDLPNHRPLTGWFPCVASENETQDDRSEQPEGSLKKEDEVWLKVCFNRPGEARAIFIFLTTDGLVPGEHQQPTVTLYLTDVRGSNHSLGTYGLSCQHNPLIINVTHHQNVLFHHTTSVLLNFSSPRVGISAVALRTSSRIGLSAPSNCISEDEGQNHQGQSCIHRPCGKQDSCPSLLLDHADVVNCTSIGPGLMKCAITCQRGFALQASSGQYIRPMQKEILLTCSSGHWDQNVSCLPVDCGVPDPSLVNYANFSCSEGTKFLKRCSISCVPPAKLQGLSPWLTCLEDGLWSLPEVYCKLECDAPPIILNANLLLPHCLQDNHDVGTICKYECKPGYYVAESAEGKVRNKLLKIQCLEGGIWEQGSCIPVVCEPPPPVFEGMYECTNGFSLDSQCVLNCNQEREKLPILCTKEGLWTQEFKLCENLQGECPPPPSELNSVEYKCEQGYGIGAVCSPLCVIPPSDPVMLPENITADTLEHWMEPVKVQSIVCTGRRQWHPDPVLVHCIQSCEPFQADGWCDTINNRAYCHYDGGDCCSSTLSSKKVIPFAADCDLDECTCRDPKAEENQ

Compound	PAPP-A2 activity (degradation of rIGFBP-5) (PAPP-A2)	Cleavage of IGFBP-5 (IGFBP-5)	Degradation of IGFBP-3 (IGFBP-3)	Degradation of rIGFBP-5 (rIGFBP-5)
O=c1oc(Cl)c(Cl)c2ccccc12 [3,4-DCI]	not affected			
c1cnc2c(c1)ccc1cccnc12 [phenanthroline]	abolished			
PAPP-A2: recombinant wild-type PAPP-A2 metalloproteinase in medium from 293T cells transfected with cDNA (pPA2)		Complete cleavage	Partial degradation	degraded all rIGFBP-5
